Laboratory results from US20260184715A1, “NOVEL PYRROLO[1,2-d][1,2,4] TRIAZINONE DERIVATIVES AS NEGATIVE ALLOSTERIC MODULATORS OF MGLU7 RECEPTORS” (Neurosterix Pharma Sarl., priority 2022, published 2026).

Target: T1, human metabotropic glutamate 7 receptor (hmGlu7) (Homo sapiens, UniProt Q14831)
T1 construct: expressed in transfected cells
Assay: mGlu7 assay on HEK-expressing human mGlu7: fluorescent cell based-Ca2+ mobilization assay (FLIPR), inhibition of EC80 L-AP4 response
Conditions: HEK-293 cells expressing hmGlu7, EC80 L-AP4; mean of at least three independent experiments in duplicate; read-out: Ca^2+ Flux (mean IC50)
Excerpt: mGlu7 Assay on HEK-Expressing Human mGLU7
The cDNA encoding the human metabotropic glutamate 7 receptor (hmGlu7), (accession number NM_181874.2, NCBI Nucleotide database browser), was subcloned into an expression vector containing also the hygromycin resistance gene. In parallel, the cDNA encoding a G protein allowing redirection of the activation signal to intracellular calcium flux was subcloned into a different expression vector containing also the Puromycin resistance gene. Transfection of both these vectors into HEK293 cells with PolyFect reagent (Qiagen) according to supplier's protocol, and hygromycin and puromycin treatment allowed selection of antibiotic resistant cells which had integrated stably one or more copies of the plasmids. Positive cellular clones expressing hmGlu7 were identified in a functional assay measuring changes in calcium fluxes in response to glutamate and L-AP4 or known mGlu7 orthosteric antagonists.
HEK-293 cells expressing hmGlu7 were maintained in media containing DMEM, Fetal Bovine Serum (10%), GlutaMAX™ (2 mM), penicillin (100 units/mL), streptomycin (100 μg/mL), geneticin (100 μg/mL) and hygromycin-B (40 μg/mL) and puromycin (1 μg/mL) at 37° C. with 5% CO2 in a humidified atmosphere.
Human mGlu7 HEK-293 cells were plated out 24 hours prior to a fluorescent cell-based calcium mobilization assay using FLIPR^384 assay (Molecular Device, Sunnyvale, CA, USA) in black-walled, clear-bottomed, poly-L-ornithine-coated 384-well plates at a density of 25,000 cells/well in a glutamine/glutamate free DMEM medium containing fetal bovine serum (10%), penicillin (100 units/mL), streptomycin (100 μg/mL) and doxycyline (1 μg/ml) at 37° C. with 5% CO2 in a humidified atmosphere.
On the day of the assay, the medium was aspirated and the cells were loaded with a 3 μM solution of Fluo4-AM (LuBioScience, Lucerne, Switzerland) in 0.03% pluronic acid. After 1 hour at 37° C./5% CO2, the non incorporated dye was removed by washing cell plate with the assay buffer. All assays were performed in a pH 7.4 buffered-Solution containing 20 mM HEPES, 143 mM NaCl, 6 mM KCl, 1 mM MgSO4, 1 mM CaCl2, 0.125 mM sulfinpyrazone and 0.1% glucose.
After 10 s of basal fluorescence recording, various concentrations of the compounds of the invention were added to the cells. Changes in fluorescence levels were first monitored for 180 s in order to detect any agonist activity of the compounds. Then the cells were stimulated by an EC80 L-AP4 concentration for an additional 110 s in order to measure inhibiting activities of the compounds of the invention. EC80 L-AP4 concentration is the concentration giving 80% of the maximal glutamate response.
The concentration-response curves of L-AP4 or representative compounds of the present invention were generated using the Prism GraphPad software (Graph Pad Inc, San Diego, USA). The curves were fitted to a four-parameter logistic equation:
(Y=Bottom+(Top−Bottom)/(1+10^((Log IC50−X)*Hill Slope)
allowing determination of IC50 values.
The Table 3 below represents the mean IC50 obtained from at least three independent experiments of selected molecules performed in duplicate.

T1 sequence (Q14831 35-922 isoform Q14831-2 limits assumed): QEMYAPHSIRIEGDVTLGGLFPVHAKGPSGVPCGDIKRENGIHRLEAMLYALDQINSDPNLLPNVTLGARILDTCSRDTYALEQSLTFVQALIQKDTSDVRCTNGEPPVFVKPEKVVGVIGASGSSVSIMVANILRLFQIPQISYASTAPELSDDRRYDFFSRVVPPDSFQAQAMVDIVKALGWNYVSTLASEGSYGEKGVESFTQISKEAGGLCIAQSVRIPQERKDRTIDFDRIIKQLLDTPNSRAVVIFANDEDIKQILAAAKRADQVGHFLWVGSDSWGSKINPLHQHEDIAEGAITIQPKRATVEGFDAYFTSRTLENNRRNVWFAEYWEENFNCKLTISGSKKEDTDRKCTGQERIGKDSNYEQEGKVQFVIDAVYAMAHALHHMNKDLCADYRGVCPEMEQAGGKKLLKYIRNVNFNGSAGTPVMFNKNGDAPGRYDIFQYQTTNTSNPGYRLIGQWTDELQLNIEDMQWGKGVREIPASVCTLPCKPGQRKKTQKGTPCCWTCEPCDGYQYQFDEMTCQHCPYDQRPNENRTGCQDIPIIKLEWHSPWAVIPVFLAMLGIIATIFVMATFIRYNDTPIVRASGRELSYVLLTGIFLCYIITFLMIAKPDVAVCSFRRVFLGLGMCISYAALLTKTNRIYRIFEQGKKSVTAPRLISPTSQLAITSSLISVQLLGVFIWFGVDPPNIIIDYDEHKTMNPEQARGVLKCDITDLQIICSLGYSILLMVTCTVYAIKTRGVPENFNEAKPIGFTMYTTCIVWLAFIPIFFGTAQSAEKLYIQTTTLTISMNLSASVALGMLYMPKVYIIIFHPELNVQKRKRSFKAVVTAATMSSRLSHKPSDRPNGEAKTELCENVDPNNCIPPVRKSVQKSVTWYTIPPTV

Row | IC50 | SMILES
1 | 100 to 1000 nM | Cc1c(-c2cccc3c2CCN3C(C)C)cc2cnn(-c3ccccn3)c(=O)n12 [1-66]
2 | < 100 nM | Cc1c(-c2cccc3c2CCN3C(C)C)cc2cnn(-c3ncccn3)c(=O)n12 [1-68]
3 | < 100 nM | Cc1c(-c2cccc3c2CCO3)cc2cnn(-c3ccccn3)c(=O)n12 [1-69]
4 | < 100 nM | COc1cccc(-c2cc3cnn(-c4ccccn4)c(=O)n3c2C)c1C [1-72]
5 | < 100 nM | Cc1c(-c2cccc(OC(F)F)c2)cc2cnn(-c3ncccn3)c(=O)n12 [1-74]
6 | < 100 nM | COc1cccc(-c2cc3cnn(-c4ncccn4)c(=O)n3c2C)c1C [1-76]
7 | < 100 nM | COc1cccc(-c2cc3cnn(-c4ncccn4)c(=O)n3c2C)c1Cl [1-77]
8 | 1000 to 10000 nM | Cc1ccc(-c2c(C)c3cnn(-c4ncccn4)c(=O)n3c2C)c(C)c1 [1-79]
9 | 100 to 1000 nM | Cc1c(-c2cccc(OC3CC3)c2)c(C)n2c(=O)n(-c3ncc(N)cn3)ncc12 [1-81]
10 | 100 to 1000 nM | Cc1c(OC2CC2)cccc1-c1cc2cnn(-c3ccccn3)c(=O)n2c1 [1-82]
11 | 1000 to 10000 nM | Cc1c(-c2cccc(OC3CC3)c2)cc2cnn(-c3ccccn3)c(=O)n12 [1-83]
12 | 100 to 1000 nM | Cc1c(-c2cccc3c2CCN3C)c(C)n2c(=O)n(-c3ncccn3)ncc12 [1-87]
13 | < 100 nM | Cc1c(-c2cccc(OC3CC3)c2)cc2cnn(-c3ncccn3)c(=O)n12 [1-88]
14 | < 100 nM | Cc1c(-c2cccc3c2CCN3C)cc2cnn(-c3ncccn3)c(=O)n12 [1-90]
15 | < 100 nM | Cc1ccc(OC2CC2)cc1-c1c(C)c2cnn(-c3ncccn3)c(=O)n2c1C [1-93]
16 | 100 to 1000 nM | CCn1ncc2c(C)c(-c3cccc4c3CCCN4C)c(C)n2c1=O [1-94]
17 | < 100 nM | Cc1c(-c2cccc3c2ccn3C2CC2)c(C)n2c(=O)n(-c3ncccn3)ncc12 [1-96]

Row | IC50 | SMILES
18 | 100 to 1000 nM | Cc1c(-c2cccc3c2ccn3C)c(C)n2c(=O)n(-c3ncccn3)ncc12 [1-97]
19 | 100 to 1000 nM | COc1cc(F)cc(-c2cc3cnn(-c4ccccn4)c(=O)n3c2C)c1 [1-101]
20 | < 100 nM | COc1cc(F)cc(-c2cc3cnn(-c4ncccn4)c(=O)n3c2C)c1 [1-103]
21 | < 100 nM | Cc1c(-c2cccc(OC3CC3)c2Cl)cc2cnn(-c3ccccn3)c(=O)n12 [1-104]
22 | < 100 nM | Cc1c(-c2cccc(OC3CC3)c2F)cc2cnn(-c3ccccn3)c(=O)n12 [1-109]
23 | 100 to 1000 nM | COc1cccc(-c2c(Br)c3cnn(-c4ccccn4)c(=O)n3c2C)c1F [1-115, 8-bromo-7-(2-fluoro-3-methoxy-phenyl)-6-methyl-3-(2-pyridyl)pyrrolo[1,2-d][1,2,4]triazin-4-one]
24 | 100 to 1000 nM | COc1nccc(-c2cc3cnn(-c4ccccn4)c(=O)n3c2C)c1F [1-116]
25 | 100 to 1000 nM | Cc1c(-c2ccnc3c2CCN3C)cc2cnn(-c3ncccn3)c(=O)n12 [1-119]
26 | 100 to 1000 nM | Cc1c(OC(F)F)cccc1-c1c(C)c2cnn(-c3ncccn3)c(=O)n2c1C [1-120]
27 | 100 to 1000 nM | COc1ccc(-c2c(C)c3cnn(-c4ncccn4)c(=O)n3c2C)cc1 [1-122]
28 | < 100 nM | Cc1c(-c2cccc(F)c2Cl)c(C)n2c(=O)n(-c3ncccn3)ncc12 [1-123]
29 | 100 to 1000 nM | COc1ccc(F)c(-c2c(C)c3cnn(-c4ccccn4)c(=O)n3c2C)c1 [1-126]
30 | < 100 nM | COc1ccc(F)c(-c2c(C)c3cnn(-c4ncccn4)c(=O)n3c2C)c1 [1-127]
31 | 100 to 1000 nM | COc1cccc(-c2c(C)c3cnn(-c4ncccn4)c(=O)n3c2C)c1F [1-133]
32 | < 100 nM | COc1ccc(-c2c(C)c3cnn(-c4ncccn4)c(=O)n3c2C)c(C)c1 [1-134]
33 | 100 to 1000 nM | COc1cc(-c2c(C)c3cnn(-c4ncccn4)c(=O)n3c2C)ccn1 [1-139]

The remaining lines, values behind:

Row | SMILES | IC50
34 | Cc1c(-c2cccc3c2CCN3C)cc2cnn(-c3ccccn3)c(=O)n12 [1-64] | < 100 nM
35 | Cc1c(-c2cccc3c2CCN3C2CC2)cc2cnn(-c3ccccn3)c(=O)n12 [1-65] | < 100 nM
36 | Cc1c(-c2cccc3c2CCN3C2CC2)cc2cnn(-c3ncccn3)c(=O)n12 [1-67] | 100 to 1000 nM
37 | Cc1c(-c2cccc(OC(F)F)c2)cc2cnn(-c3ccccn3)c(=O)n12 [1-70] | 100 to 1000 nM
38 | Cc1c(OC(F)F)cccc1-c1cc2cnn(-c3ccccn3)c(=O)n2c1C [1-71] | < 100 nM
39 | COc1cccc(-c2cc3cnn(-c4ccccn4)c(=O)n3c2C)c1Cl [1-73] | < 100 nM
40 | Cc1c(OC(F)F)cccc1-c1cc2cnn(-c3ncccn3)c(=O)n2c1C [1-75] | < 100 nM
41 | Cc1c(-c2cccc3c2CC(=O)N3C)cc2cnn(-c3ccccn3)c(=O)n12 [1-78] | < 100 nM
42 | Cc1c(-c2cccc(OC3CC3)c2)c(C)n2c(=O)n(-c3ncc(N4CCC(O)C4)cn3)ncc12 (stereo not drawn) [1-80] | 100 to 1000 nM
43 | Cc1c(OC2CC2)cccc1-c1cc2cnn(-c3ccccn3)c(=O)n2c1C [1-84] | 100 to 1000 nM
44 | Cc1c(OC2CC2)cccc1-c1cc2cnn(-c3ncccn3)c(=O)n2c1C [1-85] | 100 to 1000 nM
45 | Cc1c(-c2cccc3c2CCCN3C)c(C)n2c(=O)n(-c3ncccn3)ncc12 [1-86] | 100 to 1000 nM
46 | Cc1c(-c2cccc3c2CCCN3C)cc2cnn(-c3ncccn3)c(=O)n12 [1-89] | < 100 nM
47 | COc1cccc(-c2c(C)c3cnn(-c4ncccn4)c(=O)n3c2C)c1C [1-95] | 100 to 1000 nM
48 | COc1cccc(-c2c(C)c3cnn(-c4ncccn4)c(=O)n3c2C)n1 [1-98] | 100 to 1000 nM
49 | Cc1c(-c2cccc3c2CCN3C2CC2)c(C)n2c(=O)n(-c3ncccn3)ncc12 [1-99] | 100 to 1000 nM
50 | CCn1ncc2c(C)c(-c3cccc4c3CCN4C)c(C)n2c1=O [1-100] | 100 to 1000 nM
51 | COc1ccc(F)c(-c2cc3cnn(-c4ccccn4)c(=O)n3c2C)c1 [1-102] | < 100 nM
52 | COc1ccc(F)c(-c2cc3cnn(-c4ncccn4)c(=O)n3c2C)c1 [1-105] | 100 to 1000 nM
53 | COc1cc(-c2cc3cnn(-c4ccccn4)c(=O)n3c2C)ccn1 [1-106] | < 100 nM

Row | SMILES | IC50
54 | COc1cc(-c2cc3cnn(-c4ccccn4)c(=O)n3c2C)ccc1F [1-107] | < 100 nM
55 | COc1cccc(-c2cc3cnn(-c4ccccn4)c(=O)n3c2C)c1F [1-108] | 100 to 1000 nM
56 | Cc1c(-c2cccc(OC3CC3)c2Cl)cc2cnn(-c3ncccn3)c(=O)n12 [1-110] | < 100 nM
57 | COc1cc(-c2cc3cnn(-c4ncccn4)c(=O)n3c2C)ccc1F [1-111] | < 100 nM
58 | COc1cccc(-c2cc3cnn(-c4ncccn4)c(=O)n3c2C)c1F [1-112] | 100 to 1000 nM
59 | COc1cc(-c2cc3cnn(-c4ncccn4)c(=O)n3c2C)ccn1 [1-114] | < 100 nM
60 | COc1nccc(-c2cc3cnn(-c4ncccn4)c(=O)n3c2C)c1F [1-117] | < 100 nM
61 | Cc1c(-c2ccnc3c2CCN3C)cc2cnn(-c3ccccn3)c(=O)n12 [1-118, 6-methyl-7-(1-methyl-2,3-dihydropyrrolo[2,3-b]pyridin-4-yl)-3-(2-pyridyl)pyrrolo[1,2-d][1,2,4]triazin-4-one] | < 100 nM
62 | Cc1c(-c2cccc3c2CCCN3C2CC2)c(C)n2c(=O)n(-c3ncccn3)ncc12 [1-121] | 100 to 1000 nM
63 | Cc1c(-c2cccc(OC3CCC3)c2)c(C)n2c(=O)n(-c3ncccn3)ncc12 [1-124] | 100 to 1000 nM
64 | Cc1c(-c2cccc(OC3CC3)c2F)c(C)n2c(=O)n(-c3ncccn3)ncc12 [1-125] | 100 to 1000 nM
65 | COc1ccc(-c2c(C)c3cnn(-c4ccccn4)c(=O)n3c2C)cn1 [1-129] | < 100 nM
66 | COc1ccc(-c2c(C)c3cnn(-c4ccccn4)c(=O)n3c2C)cc1 [1-130] | 100 to 1000 nM
67 | Cc1c(-c2cccc(N3C4CCC3CC4)c2)c(C)n2c(=O)n(-c3ncccn3)ncc12 [1-131] | 100 to 1000 nM
68 | COc1ccc(-c2c(C)c3cnn(-c4ncccn4)c(=O)n3c2C)cn1 [1-132] | < 100 nM
69 | COc1ccc(-c2c(C)c3cnn(-c4ncccn4)c(=O)n3c2C)c(F)c1 [1-135] | < 100 nM
70 | COc1ccc(-c2c(C)c3cnn(-c4ccccn4)c(=O)n3c2C)c(F)c1 [1-136] | < 100 nM
71 | COc1ccc(-c2c(C)c3cnn(-c4ncccn4)c(=O)n3c2C)c(C)n1 [1-137] | 100 to 1000 nM
72 | COc1nccc(-c2c(C)c3cnn(-c4ncccn4)c(=O)n3c2C)c1F [1-138] | 100 to 1000 nM
